According to patent publication US20240058387A1, “CULTURE MEDIUM COMPOSITION FOR AMPLIFYING AND MAINTAINING SELF-RENEWAL CAPACITY AND DIFFERENTIATION POTENTIAL OF HSCS AND APPLICATION THEREOF” (EDIGENE (GUANGZHOU) INC., priority 2020, published 2024):

Experiments:
[1] = tested on: umbilical cord blood-derived CD34+ cells; experiment: Flow cytometry detection of HSC stemness markers (LT-HSCs CD34+CD45+CD90+CD45RA-CD38-) after small molecule induction; type: cell-based, human
Protocol: (§1) According to the solubility and required solvent indicated in the instructions of the small molecule inhibitor (see Table 1 for the Cat. number of the small molecule inhibitor), the preparation of the small molecule inhibitor stock solution was carried out. Next, the hematopoietic stem cell medium was prepared: SFEM II medium (stem cell, Cat. number: 09655)+50 ng/ml growth factor Flt-3L (PeProtech, Cat. number: 300-100UG)+50 ng/ml growth factor SCF (PeProtech, Cat. number): 300-07-100UG)+50 ng/ml growth factor TPO (PeProtech, Cat. number: 300-18-100UG)+10 ng/ml interleukin IL-6 (PeProtech, Cat. number: 200-06-20UG)+1% bispecific antibody (HyClone, Cat. No.: sv30010). According to the set concentration gradient of the small molecule inhibitor, the stock solution and the basal medium were used to prepare the medium containing different concentrations of the small molecule inhibitor.
(§2) First, the prepared medium was added to a 24-well plate (Corning, Cat. number: 3473), 950 μl per well, and placing it in a carbon dioxide incubator (Thermo, model: 3111) to preheat; resuspending the spare umbilical cord Blood-derived HSCs of Example 1 with SFEM 11+50 ng/ml Flt-3L+50 ng/ml SCF+50 ng/ml TPO+10 ng/ml IL-6+1% bispecific antibody, calculating the medium volume to be added according to 50 μl cell suspension per well and 2*10^5/m1 cell density per well. For example, when the final volume of the cell culture solution per well was 1 ml, the total number of cells per well was 2*10^5 cells calculated according to the cell density per well, and the density of the […] of cell suspension supplemented to each well is 4*10^6/ml. The density of the spare HSCs of Example 1 was adjusted to the calculated density of the cell suspension, and adding it; taking out the preheated medium from the incubator, adding 50 μl of the cell suspension to each well, and after mixing, using the microscope (OLYMPUS, model: CKX53) to observe the cells state, and then putting it into an incubator for culturing.
(§3) 20 μL of cells cultured for 6-8 days (D6-D8) in the above Example 2 was sampled for counting, taking out a suspension of 2*10^5 cells into a 1.5 ml centrifuge tube according to the counting result; centrifuging at 400 g for 5 min, discarding the supernatant. 100 μL of PBS (phosphate-buffered saline solution, HyClone, Cat. number: SH30256.01) containing 1% HSA (human serum albumin, Guangdong Shuanglin, Cat. number: S10970069) was taken, resuspending the cells, and vortexing to mix well for later use. Then, the cell sample in the control was collected. The number of cells and the collection method were the same as those of the sample cells to be tested. The controls were setting as the NC group and the ISO group respectively, selecting the cells from any sample or mixed cells of the samples to be tested in this batch of experiments, depending on the number of cells.
(§4) According to Table 3 above, the antibodies were added to the cell suspensions of the above-mentioned cell samples to be tested and control cell samples according to groups; vortexing to mix and incubating at room temperature for 15 min in the dark. After 15-min incubation, 1 ml of PBS containing 1% HSA was added to each test sample, mixing well, centrifuging at 400 g for 5 min at room temperature. After centrifugation, the supernatant was discarded, and the cells were resuspended in 100 μL of PBS containing 1% HSA for each test sample. Samples were stored at room temperature away from light before testing. […]

[2] = tested on: mobilized peripheral blood-derived CD34+ cells; experiment: Flow cytometry detection of HSC stemness markers, comparison with UM171 and SR1; type: cell-based, human; conditions: FIG. 5A; 1 μM; 8 days
Protocol: as §1, §2, §3, §4

For COc1cc2ncc(-c3ccccc3)nc2cc1OC [AG1296], the “expansion fold of the ratio of LT-HSCs (CD34+CD45+CD90+CD45RA-CD38-), test group/control group (Mock)” value ([1]; FIG. 2, 6-8 days induction, 3 concentrations per inhibitor) was “more than 3 times”, the “maintaining the CD3+, CD34+CD90+, CD34+CD90+CD45RA- cell ratios (proportion in total cells)” value ([1]; FIG. 3A, 1 μM, 5 μM and 10 μM, 6 days, vs Mock) was “superior to the Mock group” and the “proportion of LT-HSC relative to AG1296 (500 nM)” value ([1]; FIG. 4A, 1 μM, 6 days) was “about 2 times”. For the same molecule, the “proportion of LT-HSC relative to Mock group and AG1296 (100 nM) group” value ([1]; FIG. 4A, 1 μM, 6 days) was “about 3 times”, the “maintaining the ratio of CD34+, CD34+CD90+, and CD34+CD90+CD45RA- cells” value ([1]; FIG. 4A, 1 μM, 6 days, vs Mock, 100 nM and 500 nM) was “better than Mock group and at the concentrations of 100 nM and 500 nM” and the “maintaining the proportion of CD34+, CD34+CD90+, and CD34+CD90+CD45RA- cells, vs Mock, UM171 and lower AG1296 concentrations” value [2] was “significantly more effective than Mock group, UM171 group, AG1296 (500 nM) group and AG1296 (700 nM) group”. For the same molecule, the “maintaining the proportion of CD34+, CD34+CD90+, and CD34+CD90+CD45RA- cells, vs SR1 group” value [2] was “not as good as the SR1 group”, the “proportion of LT-HSCs relative to AG1296 (500 nM) group and AG1296 (700 nM) group” value [2] was “about 1 time” and the “proportion of LT-HSCs relative to Mock group and UM171 group” value [2] was “about 2 times”. For the same molecule, the “proportion of LT-HSCs, vs SR1 group” value [2] was “not as good as SR1 group”.
